Reference: patent publication US12453785B2, “Macrocyclic chelators and methods of use thereof” (JANSSEN BIOTECH, INC., priority 2019, dated 2025)
“Also recorded” adds a separate entry of the source.

Legend:
Assay type in all cases: physicochemical
[1] = DTPA challenge of ^225Ac complexes, iTLC-SG; settings: 30 min; for free ^225Ac by iTLC-SG after DTPA challenge / free Ac-225 at the solvent front of the iTLC-SG after DTPA challenge: free chelator, 10 mM DTPA; for free ^225Ac by iTLC-SG after DTPA challenge: high ^225Ac/chelator ratio (50 μCi); for free Ac-225 at the solvent front of the iTLC-SG after DTPA challenge: low ^225Ac/chelator ratio; for chelated Ac-225 (iTLC) after DTPA: reaction mixture with 10 mM DTPA (pH 6.5)
Method: DTPA challenge: 0.5 μL of the reaction mixture was mixed with 15 μL of 10 mM DTPA solution and the mixture was incubated for 30 min.
DTPA challenge: 10 μL of fraction #3 collected after PD-10 column was mixed with 15 μL of 10 mM DTPA solution (pH 6.5), and incubated for 30 min.
0.5 μL of reaction mixture was mixed with 15 μL 10 mM DTPA (pH 6.5) and incubated for 30 min.

[2] = ^225Ac(III) chelation / labeling, iTLC-SG analysis; settings: pH ~6.5; for free ^225Ac by iTLC-SG before DTPA challenge / free Ac-225 at the solvent front of the iTLC-SG: free chelator; for free ^225Ac by iTLC-SG before DTPA challenge: high ^225Ac/chelator ratio (50 μCi), room temperature 1.5-2 hr; for free Ac-225 at the solvent front of the iTLC-SG: low ^225Ac/chelator ratio (30 μCi), room temperature 1-2 hr; for chelated Ac-225 (iTLC): free chelator (2 mg/mL 3 μL; ethoxylmethyl isomers 1 mg/mL 1 μL), 30 μCi ^225Ac, 37° C. 2 h
[3] = Chelation test with Lanthanum (III) (HPLC, LCMS); settings: La(NO3)3, room temperature
Method: HPLC method: XBridge C18 3.5 μm 150×4.6 mm, 100 Å column; Mobile phase A: 0.1% TFA in H2O, B: 0.1% TFA in ACN; gradient 10% to 30% B in 0-20 min, gradient 30% to 100% B in 20-20.1 min, isocratic at 100% B in 20.1-25 min, gradient 100% to 10% B in 25-25.1 min, isocratic at 10% B in 25.1-30 min; postrun 3 min; flow rate 1 mL/min; column temperature 30° C.; injection volume 5 uL. Synthesis and Characterization of H2bp18c6-Benzyl-Phenyl
An aqueous solution of H2bp18c6-benzyl-isopentyl in water (˜3 mg/mL=˜5 mM, 20 μL, 0.1 μmol) was treated with La(NO3)3 (10 mM in metal free water, 50 μL, 0.5 μmol). An aqueous solution of H2bp18c6-benzyl-phenyl in water (˜3 mg/mL=˜5 mM, 20 μL, 0.1 μmol) was treated with La(NO3)3 (10 mM in metal free water, 50 μL, 0.5 μmol). After thorough mixing, each solution was analyzed by LCMS and HPLC to determine whether complexes of the chelator and La^3+ formed.
Complex formation was also confirmed by LCMS.

SMILES	chelated Ac-225 (iTLC) after DTPA [1] [%]	chelated Ac-225 (iTLC) [2] [%]	also measured
CC(C)CCC(c1cccc(C(=O)O)n1)N1CCOCCOCCN(Cc2cccc(C(=O)O)n2)CCOCCOCC1 (centres unmarked)			free ^225Ac by iTLC-SG after DTPA challenge [1]: No free ^225Ac was detected; free Ac-225 at the solvent front of the iTLC-SG after DTPA challenge [1]: No radioactivity was observed at the solvent front; free ^225Ac by iTLC-SG before DTPA challenge [2]: No free ^225Ac was detected; free Ac-225 at the solvent front of the iTLC-SG [2]: No radioactivity was observed at the solvent front; chelation with La^3+ (shift in HPLC peak retention time) [3]: rapid chelation; chelation with La^3+ (shift in HPLC peak retention time) ([3]; listed as isopentane-H2bp18c6): rapid and stoichiometric chelation
O=C(O)c1cccc(CN2CCOCCOCCN(Cc3cccc(C(=O)O)n3)CCO[C@@H]3CCC[C@@H]3OCC2)n1	99	99	
O=C(O)c1cccc(CN2CCOCCOCCN(Cc3cccc(C(=O)O)n3)CCO[C@@H]3CCCC[C@H]3OCC2)n1	99	99	
O=C(O)c1cccc(CN2CCOCCOCCN(Cc3cccc(C(=O)O)n3)CCO[C@@H]3CCC[C@H]3OCC2)n1	99	99	
CCOC[C@@H]1COCCN(Cc2cccc(C(=O)O)n2)CCOCCOCCN(Cc2cccc(C(=O)O)n2)CCO1 (single isomer, unassigned) [H2bp18c6-off Macrocycle-ethoxylmethyl isomer II]	99	99	
CCOC[C@H]1COCCN(Cc2cccc(C(=O)O)n2)CCOCCOCCN(Cc2cccc(C(=O)O)n2)CCO1 (single isomer, unassigned) [H2bp18c6-off Macrocycle-ethoxylmethyl isomer I]	99	99	
O=C(O)c1cccc(CN2CCOCCOCCN(Cc3cccc(C(=O)O)n3)CCO[C@H](CO)COCC2)n1 (single isomer, unassigned) [H2bp18c6-off Macrocycle-hydroxylmethyl isomer II]	99	99	
O=C(O)c1cccc(CN2CCOCCOCCN(Cc3cccc(C(=O)O)n3)CCO[C@@H](CO)COCC2)n1 (single isomer, unassigned) [H2bp18c6-off Macrocycle-hydroxylmethyl isomer I]	99	99	
O=C(NCCC(=O)N1Cc2ccccc2C#Cc2ccccc21)c1ccc(C(c2cccc(C(=O)O)n2)N2CCOCCOCCN(Cc3cccc(C(=O)O)n3)CCOCCOCC2)cc1 (centres unmarked) [H2bp18c6-benzyl-phenyl-DBCO]			free Ac-225 at the solvent front of the iTLC-SG after DTPA challenge [1]: No radioactivity was detected at the solvent front; free Ac-225 at the solvent front of the iTLC-SG [2]: No radioactivity activity was observed at the solvent front
O=C(O)c1cccc(CN2CCOCCOCCN(C(c3ccccc3)c3cccc(C(=O)O)n3)CCOCCOCC2)n1 (centres unmarked) [H2bp18c6-benzyl-phenyl]			free ^225Ac by iTLC-SG after DTPA challenge [1]: No free ^225Ac was detected; free Ac-225 at the solvent front of the iTLC-SG after DTPA challenge [1]: No free ^225Ac was detected after DTPA challenge; free ^225Ac by iTLC-SG before DTPA challenge [2]: No free ^225Ac was detected; free Ac-225 at the solvent front of the iTLC-SG [2]: No free ^225Ac ion was detected; also recorded: No radioactivity was observed at the solvent front; chelation with La^3+ (shift in HPLC peak retention time) [3]: rapid and stoichiometric chelation
O=C(O)c1cccc(CN2CCOCCOCCN(Cc3cccc(C(=O)O)n3)CCO[C@@H]3CCCC[C@@H]3OCC2)n1 [H2bp18c6-cis-cyclohexyl-fused Macrocycle]	99	99	
